EC50 data for 42 molecules are collected here from US20110166123A1, “NOVEL COMPOSITIONS AND METHODS OF USE” (priority 2008, published 2011).

This assay relates to human immunodeficiency virus type 1 (HIV-1). The assay can be described thus: microbe, parasite or virus in culture. The assay is classed as cell-based. Particulars: Human immunodeficiency virus 1, HeLa, 48 h, HIV-1 luciferase reporter, HeLa cells, 48 hours after infection. In general terms: Reporter assays use an easily measured gene product as a stand-in for the process of interest.
As a reminder, the EC50 is the concentration giving half of the maximal effect. Low readings indicate higher potency in that assay, high ones lower potency in that assay. For `COc1nc2c(cc1-c1ccc(OCc3ccccc3)c(F)c1)c(=O)c(C(=O)O)cn2[C@H](CO)C(C)C` [Example 17J], the concentration for a half-maximal effect (EC50) is > 100 nM.

As to `O=C(O)c1cn(C[C@H](O)c2ccccc2)c2cnc(Cc3cccc(Cl)c3F)cc2c1=O` [Example 5O], the concentration giving a half-maximal response (EC50) is > 100 nM.

The molecule `COc1nc2c(cc1NCc1c(F)cccc1F)c(=O)c(C(=O)O)cn2[C@H](CO)C(C)C` [Example 20Z, (S)-6-(2,6-difluorobenzylamino)-1-(1-hydroxy-3-methylbutan-2-yl)-7-methoxy-4-oxo-1,4-dihydro-1,8-naphthyridine-3-carboxylic acid] gave a concentration giving a half-maximal response (EC50) of 10 to 100 nM.

As to `COc1cc2c(cc1Oc1c(F)cc(F)cc1F)c(=O)c(C(=O)O)cn2[C@H](CO)C(C)(C)C` [Example 29F], the half-maximal effective concentration (EC50) was > 100 nM.

In the case of `COc1nc2c(cc1N1CCc3cc(F)ccc3C1)c(=O)c(C(=O)O)cn2[C@H](CO)C(C)C` [Example 17M], the EC50 was > 100 nM.

Take `CC(C)(C)[C@@H](CO)n1cc(C(=O)O)c(=O)c2cc(Cc3cccc(Cl)c3F)c(N3CC[C@@H](O)C3)nc21` [Example 2W]: the EC50 is 10 to 100 nM.

As to `CC(C)[C@@H](CO)n1cc(C(=O)O)c(=O)c2nc(Cc3ccc(F)c(F)c3)ccc21` [Example 8B, 6-(3,4-Difluoro-benzyl)-1-((S)-1-hydroxymethyl-2-methyl-propyl)-4-oxo-1,4-dihydro-[1.5]naphthyridine-3-carboxylic acid], the EC50 is > 100 nM.

In the case of `COc1nc2c(cc1N1CCCc3ccccc31)c(=O)c(C(=O)O)cn2[C@H](CO)C(C)C` [Example 17O], the half-maximal effective concentration (EC50) was > 100 nM.

Take `CC(C)(C)[C@@H](CO)n1cc(C(=O)O)c(=O)c2cc(Cc3cccc(Cl)c3F)c(NCCO)nc21` [Example 2R]: the half-maximal effective concentration (EC50) was < 10 nM.

Take `COc1nc2c(cc1N(C)Cc1ccc(F)cc1)c(=O)c(C(=O)O)cn2[C@H](CO)C(C)C` [Example 20V, (S)-6-((4-fluorobenzyl)(methyl)amino)-1-(1-hydroxy-3-methylbutan-2-yl)-7-methoxy-4-oxo-1,4-dihydro-1,8-naphthyridine-3-carboxylic acid]: the concentration giving a half-maximal response (EC50) is > 100 nM.

In the case of `COc1cc2c(nc1Cc1cccc(Cl)c1F)c(=O)c(C(=O)O)cn2[C@H](CO)C(C)C` [Example 8D, 6-(3-Chloro-2-fluoro-benzyl)-1-((S)-1-hydroxymethyl-2-methyl-propyl)-7-methoxy-4-oxo-1,4-dihydro-[1.5]naphthyridine-3-carboxylic acid], the half-maximal effective concentration (EC50) was > 100 nM.

`COc1nc2c(cc1CN1CCc3ccccc3C1)c(=O)c(C(=O)O)cn2[C@H](CO)C(C)C` [Example 12H]: the EC50 was > 100 nM.

With `CC(C)[C@@H](CO)n1cc(C(=O)O)c(=O)c2nc(Cc3cccc(Cl)c3)ccc21` [Example 8C, 6-(3-Chloro-benzyl)-1-((S)-1-hydroxymethyl-2-methyl-propyl)-4-oxo-1,4-dihydro-[1,5]naphthyridine-3-carboxylic acid], the EC50 was > 100 nM.

With `CN(C)c1nc2c(cc1Cc1cccc(Cl)c1F)c(=O)c(C(=O)O)cn2[C@H](CO)C(C)(C)C` [Example 2P], the concentration giving a half-maximal response (EC50) lay within 10 to 100 nM.

In the case of `CC(C)(C)[C@@H](CO)n1cc(C(=O)O)c(=O)c2cc(NCc3ccc(F)cc3)c(F)cc21` [Example 26A, (S)-7-fluoro-6-(4-fluorobenzylamino)-1-(1-hydroxy-3,3-dimethylbutan-2-yl)-4-oxo-1,4-dihydroquinoline-3-carboxylic acid], the 50% effective concentration (EC50) lay within 10 to 100 nM.

Turning to `COc1nc2c(cc1Cc1cccc(Cl)c1F)c(=O)c(C(=O)O)cn2[C@H](CO)CC(C)C` [Example 1K], the EC50 was < 10 nM.

For `CC(C)[C@@H](CO)n1cc(C(=O)O)c(=O)c2cc(Cc3cccc(Cl)c3F)cnc21` [Example 4A, (S)-6-(3-chloro-2-fluorobenzyl)-1-(1-hydroxy-3-methylbutan-2-yl)-4-oxo-1,4-dihydro-1,8-naphthyridine-3-carboxylic acid], the concentration giving a half-maximal response (EC50) fell in the range of 10 to 100 nM.

For the molecule `COc1cc2c(cc1OCc1cccc(Cl)c1F)c(=O)c(C(=O)O)cn2[C@H](CO)C(C)(C)C` [Example 29A, (S)-6-(3-chloro-2-fluorobenzyloxy)-1-(1-hydroxy-3,3-dimethylbutan-2-yl)-7-methoxy-4-oxo-1,4-dihydroquinoline-3-carboxylic acid], the EC50 was > 100 nM.

On to `Cc1cc2c(cc1NCc1ccc(F)cc1)c(=O)c(C(=O)O)cn2[C@H](CO)C(C)(C)C` [Example 25C, (S)-6-(4-fluorobenzylamino)-1-(1-hydroxy-3,3-dimethylbutan-2-yl)-7-methyl-4-oxo-1,4-dihydroquinoline-3-carboxylic acid], for which the EC50 lay in the range of 10 to 100 nM.

As for `COc1nc2c(cc1NCc1cccc(F)c1F)c(=O)c(C(=O)O)cn2[C@H](CO)C(C)C` [Example 20BB, (S)-6-(2,3-difluorobenzylamino)-1-(1-hydroxy-3-methylbutan-2-yl)-7-methoxy-4-oxo-1,4-dihydro-1,8-naphthyridine-3-carboxylic acid], the concentration for a half-maximal effect (EC50) is > 100 nM.

Take `COc1nc2c(cc1NCc1ccc(F)cc1)c(=O)c(C(=O)O)cn2[C@H](CO)C(C)C` [Example 20C, (S)-6-(4-fluorobenzylamino)-1-(1-hydroxy-3-methylbutan-2-yl)-7-methoxy-4-oxo-1,4-dihydro-1,8-naphthyridine-3-carboxylic acid]: the EC50 fell in the range of 10 to 100 nM.

`CC(C)(C)[C@@H](CO)n1cc(C(=O)O)c(=O)c2cc(NCc3ccc(F)cc3)ccc21` [Example 22B, (S)-6-(4-fluorobenzylamino)-1-(1-hydroxy-3,3-dimethylbutan-2-yl)-4-oxo-1,4-dihydroquinoline-3-carboxylic acid] displayed an EC50 of 10 to 100 nM.

For `COc1nc2c(cc1NCc1cc(F)c(F)c(F)c1)c(=O)c(C(=O)O)cn2[C@H](CO)C(C)C` [Example 20DD, (S)-1-(1-hydroxy-3-methylbutan-2-yl)-7-methoxy-4-oxo-6-(3,4,5-trifluorobenzylamino)-1,4-dihydro-1,8-naphthyridine-3-carboxylic acid], the concentration giving a half-maximal response (EC50) is > 100 nM.

Regarding `CCCn1cc(C(=O)NN)c(=O)c2c(N)nc(SC)nc21` [Example 7C], the EC50 was > 100 nM.

Regarding `CC(C)Oc1nc2c(cc1Cc1cccc(Cl)c1F)c(=O)c(C(=O)O)cn2[C@H](CO)C(C)(C)C` [Example 2D], the EC50 lay in the range of 10 to 100 nM.

`COc1nc2c(cc1NCc1ccc(C(F)(F)F)cc1)c(=O)c(C(=O)O)cn2[C@H](CO)C(C)C` [Example 20Y, (S)-1-(1-hydroxy-3-methylbutan-2-yl)-7-methoxy-4-oxo-6-(4-(trifluoromethyl)benzylamino)-1,4-dihydro-1,8-naphthyridine-3-carboxylic acid]: the 50% effective concentration (EC50) was > 100 nM.

With `COc1nc2c(cc1NCc1ccc(F)cc1)c(=O)c(C(=O)O)cn2[C@H](CO)C(C)(C)C` [Example 20MM, (S)-6-(4-fluorobenzylamino)-1-(1-hydroxy-3,3-dimethylbutan-2-yl)-7-methoxy-4-oxo-1,4-dihydro-1,8-naphthyridine-3-carboxylic acid], the EC50 was > 100 nM.

As for `COCCCNc1nc2c(cc1Cc1cccc(Cl)c1F)c(=O)c(C(=O)O)cn2[C@H](CO)C(C)(C)C` [Example 2U], the concentration giving a half-maximal response (EC50) is < 10 nM.

For `COc1nc2c(cc1-c1cccc(C#N)c1)c(=O)c(C(=O)O)cn2[C@H](CO)C(C)C` [Example 17F], the 50% effective concentration (EC50) is > 100 nM.

As to `COc1nc2c(cc1NCc1cccc(F)c1)c(=O)c(C(=O)O)cn2[C@H](CO)C(C)C` [Example 20E, (S)-6-(3-fluorobenzylamino)-1-(1-hydroxy-3-methylbutan-2-yl)-7-methoxy-4-oxo-1,4-dihydro-1,8-naphthyridine-3-carboxylic acid], the EC50 is > 100 nM.

For `CC(C)[C@@H](CO)n1cc(C(=O)O)c(=O)c2cc(Cc3ccccc3)cnc21` [Example 4C], the half-maximal effective concentration (EC50) is > 100 nM.

For `CC(C)(C)[C@@H](CO)n1cc(C(=O)O)c(=O)c2cc(Cc3cccc(Cl)c3F)c(F)nc21` [Example 2JJ], the EC50 lay within 10 to 100 nM.

In the case of `CC(C)(C)[C@@H](CO)n1cc(C(=O)O)c(=O)c2cc(Cc3cccc(Cl)c3F)c(N)nc21` [Example 3A, (S)-7-Amino-6-(3-chloro-2-fluorobenzyl)-1-(1-hydroxy-3,3-dimethylbutan-2-yl)-4-oxo-1,4-dihydro-1,8-naphthyridine-3-carboxylic acid], the EC50 is < 10 nM.

`O=C(O)c1cn([C@@H](CO)c2ccccc2)c2cnc(Cc3cccc(Cl)c3F)cc2c1=O` [Example 5P]: the concentration giving a half-maximal response (EC50) is > 100 nM.

`COc1nc2c(cc1Cc1cccc(Cl)c1F)c(=O)c(C(=O)O)cn2[C@H](CO)C1CCCCC1` [Example 1O]: the EC50 is < 10 nM.

As to `COc1nc2c(cc1CNC1CCCc3ccccc31)c(=O)c(C(=O)O)cn2[C@H](CO)C(C)C` (stereo partly drawn) [Example 12F], the EC50 was > 100 nM.

Consider `COc1nc2c(cc1NCc1cc(F)cc(F)c1)c(=O)c(C(=O)O)cn2[C@H](CO)C(C)C` [Example 20HH, (S)-6-(3,5-difluorobenzylamino)-1-(1-hydroxy-3-methylbutan-2-yl)-7-methoxy-4-oxo-1,4-dihydro-1,8-naphthyridine-3-carboxylic acid], for which the EC50 is > 100 nM.

For the molecule `COc1nc2c(cc1NCc1ccccc1Cl)c(=O)c(C(=O)O)cn2[C@H](CO)C(C)C` [Example 20M, (S)-6-(2-chlorobenzylamino)-1-(1-hydroxy-3-methylbutan-2-yl)-7-methoxy-4-oxo-1,4-dihydro-1,8-naphthyridine-3-carboxylic acid], the 50% effective concentration (EC50) was > 100 nM.

In the case of `O=C(O)c1cn([C@H](CO)CC2CCCCC2)c2cnc(Cc3cccc(Cl)c3F)cc2c1=O` [Example 5N], the EC50 was > 100 nM.

Take `COc1cc2c(cc1COc1ccc(F)cc1)c(=O)c(C(=O)O)cn2[C@H](CO)C(C)C` [Example 15A, (S)-6-((4-fluorophenoxy)methyl)-1-(1-hydroxy-3-methylbutan-2-yl)-7-methoxy-4-oxo-1,4-dihydroquinoline-3-carboxylic acid]: the half-maximal effective concentration (EC50) is > 100 nM.

On to `COc1nc2c(cc1CNCc1c(F)cc(F)cc1F)c(=O)c(C(=O)O)cn2[C@H](CO)C(C)C` [Example 12G], for which the EC50 was > 100 nM.

`COc1nc2c(cc1NCc1ccc(Cl)c(Cl)c1)c(=O)c(C(=O)O)cn2[C@H](CO)C(C)C` [Example 20K, (S)-6-(3,4-dichlorobenzylamino)-1-(1-hydroxy-3-methylbutan-2-yl)-7-methoxy-4-oxo-1,4-dihydro-1,8-naphthyridine-3-carboxylic acid]: the half-maximal effective concentration (EC50) was > 100 nM.
